The source of these data is patent US20160296499A1, “Spiroindoline Antiparasitic Derivatives” (ZOETIS SERVICES LLC, priority 2013, published 2016).

For one test, the system named is Haemonchus contortus L3. The test can be described thus: Haemonchus contortus, Larvae Stage 3 (HcL3) In Vitro Assay. The conditions noted are these: Haemonchus contortus.
Test [1] deals with Dirofilaria immitis microfilariae. The test is described as follows: Dirofilaria immitis, Microfilariae (DiMF) In Vitro Assay. The conditions noted are these: Dirofilaria immitis.
For test [2], the target named is T1, bovine vesicular acetylcholine transporter (VAChT) (Bos taurus, UniProt E1BK36).
T1 sequence (E1BK36 1-524): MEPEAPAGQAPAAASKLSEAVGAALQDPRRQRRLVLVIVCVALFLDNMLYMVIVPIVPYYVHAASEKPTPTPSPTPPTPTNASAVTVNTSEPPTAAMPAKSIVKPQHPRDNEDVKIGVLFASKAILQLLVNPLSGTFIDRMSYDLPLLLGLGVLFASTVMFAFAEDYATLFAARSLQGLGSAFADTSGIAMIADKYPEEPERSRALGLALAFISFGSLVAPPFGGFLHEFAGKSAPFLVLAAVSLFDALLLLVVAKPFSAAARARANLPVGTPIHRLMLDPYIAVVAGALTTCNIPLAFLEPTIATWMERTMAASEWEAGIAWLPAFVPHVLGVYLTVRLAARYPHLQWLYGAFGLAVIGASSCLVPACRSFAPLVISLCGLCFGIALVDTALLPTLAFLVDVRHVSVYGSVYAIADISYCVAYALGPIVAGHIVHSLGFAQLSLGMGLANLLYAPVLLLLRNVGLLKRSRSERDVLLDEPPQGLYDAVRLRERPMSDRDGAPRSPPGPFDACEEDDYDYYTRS
The test can be described thus: Radioligand Binding Assay. The conditions noted are these: Bovine binding Ki, CHO-K1 membranes with recombinant bovine VAChT, [3H]Compound X6 0.3 nM.

Setting [3] is: 96 hours, 37° C., read-out: HcL3 MEC.
Where [4] appears, read: 96 h, read-out: HcL3 MEC, Minimal Effective Concentration whereby worm motility is inhibited by approximately 70%, 37° C., tested 0.001-100 μM.
Setting [5] is: 72 h, read-out: Di MF, MEC, decrease in microfilariae motility by visual assessment, curve starting at 100 μM.

Molecules are shown by their SMILES. Like-named read-outs stand apart in the source and are kept apart here.

One may read the Ki as the equilibrium dissociation constant of an inhibitor or competing ligand from its target.

As to `O=C(NCc1cnc(Cl)s1)N1CC2(CCN(C/C=C/c3ccc(Cl)cc3)CC2)c2c1ccc(Cl)c2Cl` [Example 64, (E)-4,5-dichloro-1′-(3-(4-chlorophenyl)allyl)-N-((2-chlorothiazol-5-yl)methyl)spiro[indoline-3,4′-piperidine]-1-carboxamide], the minimal effective concentration with Haemonchus contortus L3 (setting [3]) came to 10 µM; in test [1] (72 hours, read-out: Di MF), 5.7 µM. Besides, the Ki in test [2] turned out to be 116 nM.
Consider `COc1cc2c(cn1)C1(CCN(C/C=C/c3ccc(Cl)c(Cl)c3)CC1)CN2C(=O)NCc1ccnc(Cl)c1` [Example 65, (E)-N-((2-chloropyridin-4-yl)methyl)-1-(3-(3,4-dichlorophenyl)allyl)-6′-methoxyspiro[piperidine-4,3′-pyrrolo[3,2-c]pyridine]-1′(2′H)-carboxamide], for which the values for the minimal effective concentration (with Haemonchus contortus L3 (setting [4]); in test [1] (setting [5])) were 3.3 µM and 1.8 µM, respectively. The inhibition constant (Ki) in test [2] came out at 49.4 nM.
For `N#Cc1cc2c(cn1)N(C(=O)NCc1ccnc(Cl)c1)CC21CCN(C/C=C/c2ccc(Cl)c(Cl)c2)CC1` [Example 66, (E)-N-((2-chloropyridin-4-yl)methyl)-5′-cyano-1-(3-(3,4-dichlorophenyl)allyl)spiro[piperidine-4,3′-pyrrolo[2,3-c]pyridine]-1′(2′H)-carboxamide], the minimal effective concentration in the test on Haemonchus contortus L3 (setting [4]) worked out at 1.8 µM; in test [1] (setting [5]) it was 10 µM. The Ki in test [2] is 24.1 nM.
Take `N#Cc1ccc2c(n1)C1(CCN(C/C=C/c3ccc(Cl)c(Cl)c3)CC1)CN2C(=O)NCc1ccnc(Cl)c1` [Example 67, (E)-N-((2-chloropyridin-4-yl)methyl)-5′-cyano-1-(3-(3,4-dichlorophenyl)allyl)spiro[piperidine-4,3′-pyrrolo[3,2-b]pyridine]-1′(2′H)-carboxamide]: the minimal effective concentration stood at 10 µM in the test on Haemonchus contortus L3 (setting [4]) and 5.7 µM in test [1] (setting [5]). Besides, the inhibitory constant (Ki) in test [2] was 33.5 nM.
Consider `COc1nccc2c1C1(CCN(C/C=C/c3ccc(Cl)c(Cl)c3)CC1)CN2C(=O)NCc1ccnc(Cl)c1` [Example 68, (E)-N-((2-chloropyridin-4-yl)methyl)-1-(3-(3,4-dichlorophenyl)allyl)-4′-methoxyspiro[piperidine-4,3′-pyrrolo[3,2-c]pyridine]-1′(2′H)-carboxamide], for which the minimal effective concentration in the test on Haemonchus contortus L3 (setting [4]) was found to be 33 µM; in test [1] (setting [5]) it was 1.3 µM. Moreover, in test [2], the Ki worked out at 815 nM.
The like results for `O=C(NCc1ccnc(F)c1)N1CC2(CCN(C/C=C/c3ccc(Cl)cc3)CC2)c2cc(F)c(Cl)cc21` [Example 69, (E)-6-chloro-1′-(3-(4-chlorophenyl)allyl)-5-fluoro-N-((2-fluoropyridin-4-yl)methyl)spiro[indoline-3,4′-piperidine]-1-carboxamide] were, in that order, 2.5 µM, 6.5 µM and 55.2 nM.
`O=C(NCc1ccnc(F)c1)N1CC2(CCN(C/C=C/c3ccc(Cl)cc3)CC2)c2cc(Cl)c(Cl)cc21` [Example 70, (E)-5,6-dichloro-1′-(3-(4-chlorophenyl)allyl)-N-((2-fluoropyridin-4-yl)methyl)spiro[indoline-3,4′-piperidine]-1-carboxamide]: the results for the minimal effective concentration (in the test with Haemonchus contortus L3 (setting [4]); in test [1] (setting [5])) were 3.3 µM and 7.6 µM, respectively. Besides, the inhibition constant (Ki) in test [2] worked out at 252 nM.
Consider `O=C(NCc1ccnc(F)c1)N1CC2(CCN(C/C=C/c3ccc(Cl)cc3)CC2)c2cc(Cl)c(F)cc21` [Example 71, (E)-5-chloro-1′-(3-(4-chlorophenyl)allyl)-6-fluoro-N-((2-fluoropyridin-4-yl)methyl)spiro[indoline-3,4′-piperidine]-1-carboxamide], for which the minimal effective concentration (in the test with Haemonchus contortus L3 (setting [4]); in test [1] (setting [5])) was 3.3 µM each time. Further, the Ki in test [2] came to 31.4 nM.
Turning to `N#Cc1ccc(/C=C/CN2CCC3(CC2)CN(C(=O)NCc2ccnc(Cl)c2)c2cc(C(F)(F)F)c(Cl)cc23)cc1` [Example 72, (E)-5-chloro-N-((2-chloropyridin-4-yl)methyl)-1′-(3-(4-cyanophenyl)allyl)-6-(trifluoromethyl)spiro[indoline-3,4′-piperidine]-1-carboxamide], the minimal effective concentration in the test with Haemonchus contortus L3 (setting [4]) worked out at 10 µM; in test [1] (setting [5]), 3.3 µM. The Ki in test [2] worked out at 27 nM.
Take `O=C(NCc1ccnc(F)c1)N1CC2(CCN(C/C=C/c3ccc(Cl)cc3)CC2)c2ccc(-c3ccccc3OC(F)(F)F)cc21` [Example 73, (E)-1′-(3-(4-chlorophenyl)allyl)-N-((2-fluoropyridin-4-yl)methyl)-6-(2-(trifluoromethoxy)phenyl)spiro[indoline-3,4′-piperidine]-1-carboxamide]: the values for the minimal effective concentration (in the test on Haemonchus contortus L3 (setting [4]); in test [1] (setting [5])) were 100 µM and 3.3 µM, respectively. Moreover, in test [2], the inhibitory constant (Ki) was 29.5 nM.
The like results for `O=C(NCc1ccnc(Cl)c1)N1CC2(CCN(C/C=C/c3ccc(Cl)cc3)CC2)c2cc(-n3ccccc3=O)ccc21` [Example 74, (E)-1′-(3-(4-chlorophenyl)allyl)-N-((2-chloropyridin-4-yl)methyl)-5-(2-oxopyridin-1(2H)-yl)spiro[indoline-3,4′-piperidine]-1-carboxamide] were, in that order, 100 µM, 2.4 µM and 11600 nM.
`O=C(NCc1ccnc(F)c1)N1CC2(CCN(C/C=C/c3ccc(Cl)cc3)CC2)c2cc(-n3ccccc3=O)ccc21` [Example 75, (E)-1′-(3-(4-chlorophenyl)allyl)-N-((2-fluoropyridin-4-yl)methyl)-5-(2-oxopyridin-1(2H)-yl)spiro[indoline-3,4′-piperidine]-1-carboxamide]: the minimal effective concentration in the test on Haemonchus contortus L3 (setting [4]) came to 100 µM; in test [1] (setting [5]) it was 4.4 µM. In addition, the Ki in test [2] was 11600 nM.
With `O=C(NCc1ccnc(Cl)c1)N1CC2(CCN(C/C=C/c3ccc(Cl)cc3)CC2)c2cc(N3CCCC3)ccc21` [Example 76, (E)-1′-(3-(4-chlorophenyl)allyl)-N-((2-chloropyridin-4-yl)methyl)-5-(pyrrolidin-1-yl)spiro[indoline-3,4′-piperidine]-1-carboxamide], the minimal effective concentration in the test with Haemonchus contortus L3 (setting [4]) worked out at 100 µM; in test [1] (setting [5]) it was 1.8 µM. For the same molecule, the Ki in test [2] worked out at 1420 nM.
As to `O=C(NCc1ccnc(F)c1)N1CC2(CCN(C/C=C/c3ccc(Cl)cc3)CC2)c2cc(OC(F)(F)F)ccc21` [Example 77, (E)-1′-(3-(4-chlorophenyl)allyl)-N-((2-fluoropyridin-4-yl)methyl)-5-(trifluoromethoxy)spiro[indoline-3,4′-piperidine]-1-carboxamide], the minimal effective concentration in the test on Haemonchus contortus L3 (setting [3]) came out at 5.7 µM; in test [1] (72 hours, read-out: Di MF), 3.3 µM. In addition, the Ki in test [2] was found to be 870 nM.
Consider `O=C(NCc1ccnc(Cl)c1)N1CC2(CCN(C/C=C/c3ccc(Cl)cc3)CC2)c2cc(S(=O)(=O)C(F)(F)F)ccc21` [Example 78, (E)-1′-(3-(4-chlorophenyl)allyl)-N-((2-chloropyridin-4-yl)methyl)-5-(trifluoromethylsulfonyl)spiro[indoline-3,4′-piperidine]-1-carboxamide], for which the minimal effective concentration worked out at 100 µM in the test with Haemonchus contortus L3 (setting [4]) and 1 µM in test [1] (setting [5]). In addition, the Ki in test [2] is 1290 nM.
`CS(=O)(=O)c1ccc2c(c1)C1(CCN(C/C=C/c3ccc(Cl)cc3)CC1)CN2C(=O)NCc1ccnc(Cl)c1` [Example 79, (E)-1′-(3-(4-chlorophenyl)allyl)-N-((2-chloropyridin-4-yl)methyl)-5-(methylsulfonyl)spiro[indoline-3,4′-piperidine]-1-carboxamide]: the minimal effective concentration in the test with Haemonchus contortus L3 (setting [4]) came to 100 µM; in test [1] (setting [5]), 10 µM. Also, the Ki in test [2] amounted to 11300 nM.
For the molecule `O=C(NCc1ccnc(Cl)c1)N1CC2(CCN(C/C=C/c3ccc(Cl)cc3)CC2)c2cc(SC(F)(F)F)ccc21` [Example 80, (E)-1′-(3-(4-chlorophenyl)allyl)-N-((2-chloropyridin-4-yl)methyl)-5-(trifluoromethylthio)spiro[indoline-3,4′-piperidine]-1-carboxamide], the minimal effective concentration with Haemonchus contortus L3 (setting [4]) was determined as 100 µM; in test [1] (setting [5]), 10 µM. The inhibition constant (Ki) in test [2] was 191 nM.
Turning to `O=C(NCc1ccnc(Cl)c1)N1CC2(CCN(C/C=C/c3ccc(Cl)cc3)CC2)c2cc(-c3nccs3)ccc21` [Example 81, (E)-1′-(3-(4-chlorophenyl)allyl)-N-((2-chloropyridin-4-yl)methyl)-5-(thiazol-2-yl)spiro[indoline-3,4′-piperidine]-1-carboxamide], the minimal effective concentration with Haemonchus contortus L3 (setting [4]) was determined as 100 µM; in test [1] (setting [5]) it was 7.6 µM. Moreover, the Ki in test [2] worked out at 308 nM.
For the molecule `O=C(NCc1ccnc(F)c1)N1CC2(CCN(C/C=C/c3ccc(Cl)cc3)CC2)c2cc(C(F)(F)F)ccc21` [Example 82, (E)-1′-(3-(4-chlorophenyl)allyl)-N-((2-fluoropyridin-4-yl)methyl)-5-(trifluoromethyl)spiro[indoline-3,4′-piperidine]-1-carboxamide], the minimal effective concentration with Haemonchus contortus L3 (setting [4]) turned out to be 7.6 µM; in test [1] (setting [5]), 4.4 µM. Moreover, the Ki in test [2] turned out to be 572 nM.
